Patent US9611251B2, “Substituted piperidine compounds and their use as orexin receptor modulators” (Janssen Pharmaceutica NV, priority 2013, dated 2017)

Experiments:
[1] = biological target: human orexin 2 receptor (Homo sapiens (Human), UniProt O43614); assay: Human orexin 2 receptor radioligand binding ([3H]-EMPA); conditions: averages of 2-20 runs, read-out: hOX2 Ki
Method: (§1) Data are analyzed using pc-Sandy macro and graphed on Graphpad Prism 5. For analysis, each concentration point is averaged from triplicate values and the averaged values are plotted on Graphpad Prism. The IC50 was determined by applying the following equation (GraphPad Prism 5.0, SanDiego) for one site competition where X=log (concentration) and Y=specific binding. Top denotes the total [^3H]-(1-(5-(2-fluoro-phenyl)-2-methyl-thiazol-4-yl)-1-((S)-2-(5-phenyl-(1,3,4)oxadiazol-2-ylmethyl)-pyrrolidin-1-yl)-methanone) binding, bottom denotes the nonspecific [^3H]-(1-(5-(2-fluoro-phenyl)-2-methyl-thiazol-4-yl)-1-((S)-2-(5-phenyl-(1,3,4)oxadiazol-2-ylmethyl)-pyrrolidin-1-yl)-methanone) binding. Graphpad Prism calculates Ki value from IC50 and the pre-determined Kd values for [^3H]-(1-(5-(2-fluoro-phenyl)-2-methyl-thiazol-4-yl)-1-((S)-2-(5-phenyl-(1,3,4)oxadiazol-2-ylmethyl)-pyrrolidin-1-yl)-methanone) and [3H]-EMPA. The Ki for each compound is then uploaded into 3DX. Each run comprises individual compounds in triplicate.
Human Orexin 2 Receptor Radioligand Binding Studies
HEK293 stably expressing human orexin 2 receptor (Genebank accession number NM_001526) were grown to confluency in DMEM (Hyclone, cat #SH30022), 10% FBS, 1×Pen/Strep, 1× NaPyruvate, 10 mM HEPES, 600 ug/ml G418 media on 150 cm^2 tissue culture plates, washed with 5 mM EDTA in PBS (HyClone Dulbecco's Phosphate Buffered Saline 1× with Calcium and Magnesium, Cat #SH30264.01, hereafter referred to simply as PBS) and scraped into 50 ml tubes. After centrifugation (2K×G, 5 min at 4° C.), the supernatant was aspirated and the pellets frozen and stored at −80° C. […] Each cell pellet from a 15 cm plate was resuspended in 10 mL, stored on ice, and homogenized for 45 sec just prior to addition to the reactions. Competition binding experiments in 96 well polypropylene plates were performed using [^3H]-EMPA (Moraveck Corporation, specific activity=29.6 Ci/mmol), diluted to a 5 nM concentration in PBS (2 nM final concentration). […] The final concentration of DMSO in the reactions is equal to or less than 0.1%. Total and nonspecific binding was determined in the absence and presence of 10 μM almorexant. The total volume of each reaction is 200 μL (20 μL of diluted compounds, 80 μL of [^3H]-EMPA diluted in PBS and 100 μL of the cell suspension). […] The plates were washed 3 times by aspirating 30 ml PBS through the plates. Plates were dried in 55° C. oven for 60 min, scintillation fluid was added, and the radioactivity was counted on a Topcount (Packard).

[2] = biological target: rat orexin 1 receptor (Rattus norvegicus, UniProt P56718); assay: Rat orexin 1 receptor radioligand binding; conditions: rat orexin 1 receptor radioligand binding; averages of 2-20 runs; read-out: rOX1 Ki
Method: as §1
(§2) Rat and Human Orexin 1 Receptor Radioligand Binding Studies
After centrifugation (2K×G, 5 min at 4° C.), the supernatant was aspirated and the pellets frozen and stored at −80° C. […] Each cell pellet from a 15 cm plate was resuspended in 10 mL, stored on ice, and homogenized for 45 sec prior to addition to the reactions. Competition binding experiments in 96 well polypropylene plates were performed using [^3H]-(1-(5-(2-fluoro-phenyl)-2-methyl-thiazol-4-yl)-1-((S)-2-(5-phenyl-(1,3,4)oxadiazol-2-ylmethyl)-pyrrolidin-1-yl)-methanone) (Moraveck Corporation, specific activity=35.3 Ci/mmol), diluted to a 10 nM concentration in PBS (4 nM final). […] The final concentration of DMSO in the reactions is equal to or less than 0.1%. Total and nonspecific binding was determined in the absence and presence of 10 μM almorexant. The total volume of each reaction is 200 μL (20 μL of diluted compounds, 80 μL of [^3H]-(1-(5-(2-fluoro-phenyl)-2-methyl-thiazol-4-yl)-1-((S)-2-(5-phenyl-(1,3,4)oxadiazol-2-ylmethyl)-pyrrolidin-1-yl)-methanone) diluted in PBS and 100 μL of the cell suspension). […] The plates were washed 3 times by aspirating 30 ml PBS through the plates. Plates were dried in 55° C. oven for 60 min, scintillation fluid was added, and the radioactivity was counted on a Topcount (Packard).

[3] = biological target: human orexin 1 receptor (Homo sapiens, UniProt O43613); assay: Human orexin 1 receptor radioligand binding; conditions: human orexin 1 receptor radioligand binding; averages of 2-20 runs; read-out: hOX1 Ki
Method: The in vitro affinity of the compounds of the invention for the rat/human orexin 1 and human orexin 2 receptors was determined by competitive radioligand binding using [^3H](1-(5-(2-fluoro-phenyl)-2-methyl-thiazol-4-yl)-1-((S)-2-(5-phenyl-(1,3,4)oxadiazol-2-ylmethyl)-pyrrolidin-1-yl)-methanone) (Langmead et al., 2004) and [^3H]EMPA (n-ethyl-2[96-methoxypyridin-3-yl)-(toluene-2-sulfonyl)-amino]-N-pyridin-3-ylmethyl acetamide), respectively (Langmead et al., 2004, British Journal of Pharmacology 141:340-346; Malherbe et al., 2004, British Journal of Pharmacology 156:1326-41).
as §1, §2
Human Embryonic Kidney 293 cells (HEK293) stably expressing rat orexin 1 receptor (Genebank accession number NM_001525) or Chinese ovary cells (CHO) stably expressing human orexin 1 receptor (Genebank accession number NM_001526) were grown to confluency in DMEM (Hyclone, cat #SH30022), 10% FBS, 1×Pen/Strep, 1× sodium pyruvate, 10 mM HEPES, 600 μg/mL G418 and DMEM/F12 (Gibco, Cat #11039), 10% FBS, 1×Pen/Strep, 600 μg/mL G418 media, respectively on 150 cm^2 tissue culture plates, washed with 5 mM EDTA in PBS (HyClone Dulbecco's Phosphate Buffered Saline 1× with Calcium and Magnesium, Cat #SH30264.01, hereafter referred to simply as PBS) and scraped into 50 ml tubes. After centrifugation (2K×G, 5 min at 4° C.), the supernatant was aspirated and the pellets frozen and stored at −80° C. Cells were resuspended in PBS in the presence of 1 tablet of protease inhibitor cocktail (Roche, Cat. #11836145001) per 50 mL. Each cell pellet from a 15 cm plate was resuspended in 10 mL, stored on ice, and homogenized for 45 sec prior to addition to the reactions. Competition binding experiments in 96 well polypropylene plates were performed using [^3H]-(1-(5-(2-fluoro-phenyl)-2-methyl-thiazol-4-yl)-1-((S)-2-(5-phenyl-(1,3,4)oxadiazol-2-ylmethyl)-pyrrolidin-1-yl)-methanone) (Moraveck Corporation, specific activity=35.3 Ci/mmol), diluted to a 10 nM concentration in PBS (4 nM final). […] The final concentration of DMSO in the reactions is equal to or less than 0.1%. Total and nonspecific binding was determined in the absence and presence of 10 μM almorexant. The total volume of each reaction is 200 μL (20 μL of diluted compounds, 80 μL of [^3H]-(1-(5-(2-fluoro-phenyl)-2-methyl-thiazol-4-yl)-1-((S)-2-(5-phenyl-(1,3,4)oxadiazol-2-ylmethyl)-pyrrolidin-1-yl)-methanone) diluted in PBS and 100 μL of the cell suspension). Reactions were run for 60 min at room temperature and terminated by filtration through GF/C filter plates (PerkinElmer, Cat. #6005174) presoaked in 0.3% polyethylenimine using the cell harvester (PerkinElmer Filtermate). The plates were washed 3 times by aspirating 30 ml PBS through the plates. Plates were dried in 55° C. oven for 60 min, scintillation fluid was added, and the radioactivity was counted on a Topcount (Packard).

Sequence of human orexin 2 receptor (O43614 whole entry): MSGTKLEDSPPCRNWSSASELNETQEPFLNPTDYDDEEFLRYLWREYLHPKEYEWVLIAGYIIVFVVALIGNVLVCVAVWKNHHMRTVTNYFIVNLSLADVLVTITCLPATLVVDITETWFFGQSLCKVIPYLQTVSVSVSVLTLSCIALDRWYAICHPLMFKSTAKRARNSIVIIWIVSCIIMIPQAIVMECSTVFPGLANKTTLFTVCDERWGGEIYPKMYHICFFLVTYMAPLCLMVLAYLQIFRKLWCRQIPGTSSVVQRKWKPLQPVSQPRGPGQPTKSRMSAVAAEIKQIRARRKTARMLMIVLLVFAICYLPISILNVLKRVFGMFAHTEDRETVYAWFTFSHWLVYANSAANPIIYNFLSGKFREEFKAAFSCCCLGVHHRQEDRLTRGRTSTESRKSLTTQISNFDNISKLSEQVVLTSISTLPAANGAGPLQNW

Structure (SMILES)	Ki [1] [nM]	Ki [2] [nM]	Ki [3] [nM]
COc1ccc(C(=O)N2CCC[C@@H](Nc3ccc(Cl)cn3)[C@@H]2C)c(-n2nccn2)c1 (relative stereo) [Example 181, ((2S*,3R*)-3-((5-chloropyridin-2-yl)amino)-2-methylpiperidin-1-yl)(4-methoxy-2-(2H-1,2,3-triazol-2-yl)phenyl)methanone]	5200	93	176
COc1ccc(-n2nccn2)c(C(=O)N2CCC[C@@H](Nc3cnc(C(F)(F)F)cn3)[C@@H]2C)c1 (relative stereo) [Example 184, (5-methoxy-2-(2H-1,2,3-triazol-2-yl)phenyl)((2S*,3R*)-2-methyl-3-((5-(trifluoromethyl)pyrazin-2-yl)amino)piperidin-1-yl)methanone]	191	7	6
Cc1cnc(C(=O)N2CCC[C@@H](N(C)c3nc4ccccc4o3)[C@@H]2C)c(-n2nccn2)c1 (relative stereo) [Example 187, ((2S*,3R*)-3-(benzo[d]oxazol-2-yl(methyl)amino)-2-methylpiperidin-1-yl)(5-methyl-3-(2H-1,2,3-triazol-2-yl)pyridin-2-yl)methanone]		20	39
Cc1ccc(C(=O)N2CCC[C@@H](N(C)c3ccc(C(F)(F)F)cn3)[C@@H]2C)c(-n2nccn2)n1 (relative stereo) [Example 188, (6-methyl-2-(2H-1,2,3-triazol-2-yl)pyridin-3-yl)((2S*,3R*)-2-methyl-3-(methyl(5-(trifluoromethyl)pyridin-2-yl)amino)piperidin-1-yl)methanone]	> 10000	92	100
C[C@H]1[C@H](Nc2ccc(C(F)(F)F)cn2)CCCN1C(=O)c1cccc(F)c1-c1ncccn1 (relative stereo) [Example 189, (3-fluoro-2-(pyrimidin-2-yl)phenyl)((2S*,3R*)-2-methyl-3-((5-(trifluoromethyl)pyridin-2-yl)amino)piperidin-1-yl)methanone]	175	7	5
Cc1noc(-c2cc(F)ccc2C(=O)N2CCC[C@@H](Nc3ccc(C(F)(F)F)cn3)[C@@H]2C)n1 (relative stereo) [Example 190, (4-fluoro-2-(3-methyl-1,2,4-oxadiazol-5-yl)phenyl)((2S*,3R*)-2-methyl-3-((5-(trifluoromethyl)pyridin-2-yl)amino)piperidin-1-yl)methanone]		26	18
C[C@H]1[C@H](Nc2ccc(C(F)(F)F)cn2)CCCN1C(=O)c1ccc(F)cc1-c1ncccn1 (relative stereo) [Example 191, (4-fluoro-2-(pyrimidin-2-yl)phenyl)((2S*,3R*)-2-methyl-3-((5-(trifluoromethyl)pyridin-2-yl)amino)piperidin-1-yl)methanone]	421	12	9
C[C@H]1[C@H](Nc2ccc(C(F)(F)F)cn2)CCCN1C(=O)c1ccc(F)cc1-n1nccn1 (relative stereo) [Example 192, (4-fluoro-2-(2H-1,2,3-triazol-2-yl)phenyl)((2S*,3R*)-2-methyl-3-((5-(trifluoromethyl)pyridin-2-yl)amino)piperidin-1-yl)methanone]	543	27	25
C[C@H]1[C@H](Nc2ncc(C(F)(F)F)cn2)CCCN1C(=O)c1ccc(F)cc1-n1nccn1 (relative stereo) [Example 198, (4-fluoro-2-(2H-1,2,3-triazol-2-yl)phenyl)((2S*,3R*)-2-methyl-3-((5-(trifluoromethyl)pyrimidin-2-yl)amino)piperidin-1-yl)methanone]	2500	119	92
CCOc1ccc(C)nc1C(=O)N1CCC[C@@H](Nc2ncc(C(F)(F)F)cn2)[C@@H]1C (relative stereo) [Example 199, (3-ethoxy-6-methylpyridin-2-yl)((2S*,3R*)-2-methyl-3-((5-(trifluoromethyl)pyrimidin-2-yl)amino)piperidin-1-yl)methanone]	2400	154	206
C[C@H]1[C@H](Nc2nc3ccccc3o2)CCCN1C(=O)c1cccc(F)c1-c1ncccn1 (relative stereo) [Example 204, ((2S*,3R*)-3-(benzo[d]oxazol-2-ylamino)-2-methylpiperidin-1-yl)(3-fluoro-2-(pyrimidin-2-yl)phenyl)methanone]	292	14	16
Cc1ccc(C(=O)N2CCC[C@@H](Nc3ccc(C(F)(F)F)cn3)[C@@H]2C)c(-n2nccn2)n1 [Example 98, (6-methyl-2-(2H-1,2,3-triazol-2-yl)pyridin-3-yl)((2S,3R)-2-methyl-3-((5-(trifluoromethyl)pyridin-2-yl)amino)piperidin-1-yl)methanone]		24	21
